Measured values published in US20180305332A1, “Bispiperidinyl Derivatives as Liver X Receptor Beta Agonists, Compositions, and Their Use” (Merck Sharp & Dohme Corp., priority 2015, published 2018).
pEC50: −log10 of the molar value.

Tests used:
[1] = target: T1, GST tagged LXRbeta LBD (ligand binding domain) (Homo sapiens, UniProt P55055); experiment: LanthaScreen TR-FRET Liver X Receptor Coactivator Assay, LXR beta-LBD; assay type: biochemical; conditions: relative to reference T0901317; for pEC50: Inflection Point (potency), co-activator recruitment, read-out: LXR beta IP; for Emax: activity at max dose (efficacy), read-out: LXR beta act @ max dose (%)
T1 construct: purchased Invitrogen pv4658.pps
T1 sequence (P55055 222-460 limits assumed): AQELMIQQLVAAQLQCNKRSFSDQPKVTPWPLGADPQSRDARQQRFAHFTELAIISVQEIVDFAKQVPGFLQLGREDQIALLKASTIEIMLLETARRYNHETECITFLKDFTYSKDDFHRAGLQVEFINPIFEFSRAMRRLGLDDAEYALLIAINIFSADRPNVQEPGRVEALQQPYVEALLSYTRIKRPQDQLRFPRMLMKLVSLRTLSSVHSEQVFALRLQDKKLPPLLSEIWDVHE
In short: (§1)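 Values are inflection points (potency) and Emax (efficacy) expressed against reference agonist T0901317. Coactivator recruitment is measured by TR-FRET between terbium anti-GST antibody on the LBD and a fluorescein-labelled peptide, following room-temperature incubation.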

[2] = target: T2, GST tagged LXRalpha LBD (ligand binding domain) (Homo sapiens, UniProt Q13133); experiment: LanthaScreen TR-FRET Liver X Receptor Coactivator Assay, LXR alpha-LBD; assay type: biochemical; conditions: relative to reference T0901317; for pEC50 / LXR alpha IP (nM): Inflection Point (potency), co-activator recruitment; for pEC50: read-out: LXR alpha IP; for Emax: activity at max dose (efficacy), read-out: LXR alpha act @ max dose (%)
T2 construct: purchased Invitrogen pv4655
T2 sequence (Q13133 209-447 limits assumed): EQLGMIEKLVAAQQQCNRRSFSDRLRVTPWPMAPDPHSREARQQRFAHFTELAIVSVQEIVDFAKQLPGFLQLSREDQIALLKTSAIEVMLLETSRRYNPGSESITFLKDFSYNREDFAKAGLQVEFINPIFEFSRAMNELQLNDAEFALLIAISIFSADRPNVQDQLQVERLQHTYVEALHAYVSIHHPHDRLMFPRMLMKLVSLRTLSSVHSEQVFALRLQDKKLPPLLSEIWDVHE
In short: as §1

Compound	pEC50 [1]	Emax [1] [%]	pEC50 [2]	Emax [2] [%]	LXR alpha IP (nM) [2]
CC(C)N(C)C(=O)c1ccc(N2CCC(C3CCN(C(=O)C(O)(C(C)C)C(F)(F)F)CC3)CC2)cc1Cl (stereo not shown) [Example E-6, 2-chloro-4-{1′-[2-hydroxy-3-methyl-2-(trifluoromethyl)butanoyl]-4,4′-bipiperidin-1-yl}-N-methyl-N-(1-methylethyl)benzamide]	6.95	101	6.12	53	–
CC(C)C(O)(C(=O)N1CCC(C2CCN(c3ccc(C(=O)N4CCOCC4)c(Cl)c3)CC2)CC1)C(F)(F)F (stereo not shown) [Example E-8, 2-({1′-[3-chloro-4-(morpholin-4-ylcarbonyl)phenyl]-4,4′-bipiperidin-1-yl}carbonyl)-1,1,1-trifluoro-3-methylbutan-2-ol]	6.83	65	5.92	29	–
CCN(CC)C(=O)c1ccc(N2CCC(C3CCN(C(=O)C(O)(C(C)C)C(F)(F)F)CC3)CC2)cc1Cl (stereo not shown) [Example E-9, 2-chloro-N,N-diethyl-4-{1′-[2-hydroxy-3-methyl-2-(trifluoromethyl)butanoyl]-4,4′-bipiperidin-1-yl}benzamide]	7.52	96	6.94	49	–
CC(C)C(O)(C(=O)N1CCC(C2CCN(c3ccc(C(=O)N4CCOC[C@H]4C)c(Cl)c3)CC2)CC1)C(F)(F)F (stereo partly drawn) [Example E-10, 2-{[1′-(3-chloro-4-{[(3R)-3-methylmorpholin-4-yl]carbonyl}phenyl)-4,4′-bipiperidin-1-yl]carbonyl}-1,1,1-trifluoro-3-methylbutan-2-ol]	6.66	72	5.90	32	–
CCN(CC)C(=O)c1ccc(N2CCC(C3CCN(C(=O)c4c(F)cccc4F)CC3)CC2)cc1Cl [Example E-14, 2-chloro-4-{1′-[(2,6-difluorophenyl)carbonyl]-4,4′-bipiperidin-1-yl}-N,N-diethylbenzamide]	6.54	78	5.72	30	–
CN(Cc1ccon1)C(=O)c1ccc(N2CCC(C3CCN(C(=O)c4c(F)cccc4F)CC3)CC2)cc1Cl [Example E-16, 2-chloro-4-{1′-[(2,6-difluorophenyl)carbonyl]-4,4′-bipiperidin-1-yl}-N-(isoxazol-3-ylmethyl)-N-methylbenzamide]	6.86	92	5.77	38	–
O=C(c1ccc(N2CCC(C3CCN(C(=O)[C@](O)(c4ccccc4)C(F)(F)C(F)(F)F)CC3)CC2)cc1Cl)N1CCCC1 [Example E-17]	6.98	130	6.12	33	–
CC(C)(C(=O)N1CCC(C2CCN(c3ccc(C(=O)N4CCCC4)c(Cl)c3)CC2)CC1)c1ccccc1 [Example E-18, 1-[3-chloro-4-(pyrrolidin-1-ylcarbonyl)phenyl]-1′-(2-methyl-2-phenylpropanoyl)-4,4′-bipiperidine]	7.14	99	5.89	52	–
O=C(c1ccc(N2CCC(C3CCN(C(=O)[C@](O)(c4ccccc4)C(F)(F)F)CC3)CC2)cc1Cl)N1CCCC1 [Example E-20]	6.71	78	–	25	NO IP
O=C(c1ccc(N2CCC(C3CCN(C(=O)[C@](O)(c4ccccc4)C(F)(F)F)CC3)CC2)cc1Cl)N1CCCC1C(F)(F)F (stereo partly drawn) [Example E-21, (2R)-3-[1′-(3-chloro-4-{[2-(trifluoromethyl)pyrrolidin-1-yl]carbonyl}phenyl)-4,4′-bipiperidin-1-yl]-1,1,1-trifluoro-3-oxo-2-phenylpropan-2-ol]	7.02	62	–	13	NO IP
COC(=O)[C@@H]1CCCN1C(=O)c1ccc(N2CCC(C3CCN(C(=O)[C@](O)(c4ccccc4)C(F)(F)F)CC3)CC2)cc1Cl [Example E-22, methyl 1-[(2-chloro-4-{1′-[(2R)-3,3,3-trifluoro-2-hydroxy-2-phenylpropanoyl]-4,4′-bipiperidin-1-yl}phenyl)carbonyl]prolinate]	6.36	81	5.78	18	–
O=C(c1ccc(N2CCC(C3CCN(C(=O)[C@](O)(c4ccccc4)C(F)(F)F)CC3)CC2)cc1Cl)N1CC[C@H](F)C1 [Example E-26, (2R)-3-[1′-(3-chloro-4-{[(3S)-3-fluoropyrrolidin-1-yl]carbonyl}phenyl)-4,4′-bipiperidin-1-yl]-1,1,1-trifluoro-3-oxo-2-phenylpropan-2-ol]	6.55	92	5.84	25	–

Continued, values first:

pEC50 [1]	Emax [1] [%]	pEC50 [2]	Emax [2] [%]	LXR alpha IP (nM) [2]	Compound
6.95	123	5.97	56	–	CNC(=O)c1ccc(N2CCC(C3CCN(C(=O)C(O)(C(C)C)C(F)(F)F)CC3)CC2)cc1Cl (stereo not shown) [Example E-5, 2-chloro-4-{1′-[2-hydroxy-3-methyl-2-(trifluoromethyl)butanoyl]-4,4′-bipiperidin-1-yl}-N-methylbenzamide]
6.97	74	5.72	32	–	CC(C)C(O)(C(=O)N1CCC(C2CCN(c3ccc(C(=O)N4CCCC4)c(Cl)c3)CC2)CC1)C(F)(F)F (stereo not shown) [Example E-7, 2-({1′-[3-chloro-4-(pyrrolidin-1-ylcarbonyl)phenyl]-4,4′-bipiperidin-1-yl}carbonyl)-1,1,1-trifluoro-3-methylbutan-2-ol]
6.81	33	5.97	1	–	CC(C)N(C(=O)c1ccc(N2CCC(C3CCN(C(=O)C(O)(C(C)C)C(F)(F)F)CC3)CC2)cc1Cl)C(C)C (stereo not shown) [Example E-11, 2-chloro-4-{1′-[2-hydroxy-3-methyl-2-(trifluoromethyl)butanoyl]-4,4′-bipiperidin-1-yl}-N,N-bis(1-methylethyl)benzamide]
6.89	84	5.91	58	–	O=C(c1c(F)cccc1F)N1CCC(C2CCN(c3ccc(C(=O)N4CCCC4CO)c(Cl)c3)CC2)CC1 (stereo not shown) [Example E-12, {1-[(2-chloro-4-{1′-[(2,6-difluorophenyl)carbonyl]-4,4′-bipiperidin-1-yl}phenyl)carbonyl]pyrrolidin-2-yl}methanol]
6.33	46	5.67	15	–	O=C(c1c(F)cccc1F)N1CCC(C2CCN(c3ccc(C(=O)N4CCCC4C(F)(F)F)c(Cl)c3)CC2)CC1 (stereo not shown) [Example E-13, 1-(3-chloro-4-{[2-(trifluoromethyl)pyrrolidin-1-yl]carbonyl}phenyl)-1′-[(2,6-difluorophenyl)carbonyl]-4,4′-bipiperidine]
6.55	54	–	10	NO IP	CN(CC1CC1(C)C)C(=O)c1ccc(N2CCC(C3CCN(C(=O)c4c(F)cccc4F)CC3)CC2)cc1Cl (stereo not shown) [Example E-15, 2-chloro-4-{1′-[(2,6-difluorophenyl)carbonyl]-4,4′-bipiperidin-1-yl}-N-[(2,2-dimethylcyclopropyl)methyl]-N-methylbenzamide]
6.90	72	5.75	25	–	O=C(c1ccc(N2CCC(C3CCN(C(=O)[C@](O)(c4ccccc4)C(F)(F)F)CC3)CC2)cc1Cl)N1CCC[C@@H]1CO [Example E-23, (2R)-3-[1′-(3-chloro-4-{[(2R)-2-(hydroxymethyl)pyrrolidin-1-yl]carbonyl}phenyl)-4,4′-bipiperidin-1-yl]-1,1,1-trifluoro-3-oxo-2-phenylpropan-2-ol]
6.49	76	5.51	27	–	O=C(c1ccc(N2CCC(C3CCN(C(=O)[C@](O)(c4ccccc4)C(F)(F)F)CC3)CC2)cc1Cl)N1CCC(O)C1 (stereo partly drawn) [Example E-24, 1-[(2-chloro-4-{1′-[(2R)-3,3,3-trifluoro-2-hydroxy-2-phenylpropanoyl]-4,4′-bipiperidin-1-yl}phenyl)carbonyl]pyrrolidin-3-ol]
6.48	88	6.11	15	–	CC1CCCN1C(=O)c1ccc(N2CCC(C3CCN(C(=O)[C@](O)(c4ccccc4)C(F)(F)F)CC3)CC2)cc1Cl (stereo partly drawn) [Example E-25, (2R)-3-(1′-{3-chloro-4-[(2-methylpyrrolidin-1-yl)carbonyl]phenyl}-4,4′-bipiperidin-1-yl)-1,1,1-trifluoro-3-oxo-2-phenylpropan-2-ol]
7.28	58	–	0	NO IP	CC1CCC(C)N1C(=O)c1ccc(N2CCC(C3CCN(C(=O)[C@](O)(c4ccccc4)C(F)(F)F)CC3)CC2)cc1Cl (stereo partly drawn) [Example E-27, (2R)-3-(1′-{3-chloro-4-[(2,5-dimethylpyrrolidin-1-yl)carbonyl]phenyl}-4,4′-bipiperidin-1-yl)-1,1,1-trifluoro-3-oxo-2-phenylpropan-2-ol]
